Laboratory results as given in patent US20090181972A1, “Novel Inhibitors of Cysteine Proteases, the Pharmaceutical Compositions Thereof and their Therapeutic Applications” (priority 2005, published 2009).
pIC50: −log10 of the molar value.

Target: T1, USP7 (Homo sapiens, UniProt Q93009)
T1 construct: His tag (pFastBac-HT vector) (N); made in house; host or cells: Sf9 or High Five insect cells (baculovirus)
Test: USP7 activity assay
Format: biochemical
Conditions: 400 nM Ub-AMC, 152 pM enzyme; pre-incubated 30 minutes at 25° C., 60 minutes at 37° C.; sigmoidal fit; read-out: USP 7
Description: The cDNA encoding USP7 was obtained by PCR amplification from placenta mRNA. USP7 cDNA was subcloned by PCR into a baculovirus expression vector (pFastBac-HT; Invitrogen). A cDNA encoding a mutated USP7 was generated by mutagenic PCR. The corresponding protein encodes a cysteine to alanine substitution at residue 223. The sequences were ascertained by sequencing of the entire open reading frame. Bacmids encoding USP7 were generated following DH10bac transposition. The corresponding bacmids were transfected into insect cells (Sf9). Viruses were recovered from culture supernatant and amplified twice. Insect cells (Sf9 or High Five; lnvitrogen) were infected for 72 hours. Total cell lysates were harvested and lyzed in lysis buffer (Tris HCl 50 mM pH 7.6; 0.75 % NP40; 500 mM NaCl; 10% glycerol; 1 mM DTT; 10 mM imidazole; Protease Inhibitor Cocktail; AEBSF 20 μg.ml^−1; Aprotinin 10 μg.ml^−1). Proteins were affinity purified on metal affinity resins (Talon Metal affinity resin; BD Biosciences). Bound materials were extensively washed in wash buffer (50 mM Sodium Phosphate pH 7.0; 300 mM NaCl; 10 mM imidazole; 0.5% Triton X-100; 10% glycerol) and eluted from the resin in 250 mM imidazole-containing wash buffer. Proteins were dialyzed in dialysis buffer (Tris HCl pH 7.6 20 mM; NaCl 200 mM; DTT 1 mM; EDTA 1 mM; 10% Glycerol). Proteins purifications were analyzed on 4-12% NuPAGE (Invitrogen).
USP7 was diluted in USP buffer (50 mM Tris HCl; 0.5 mM EDTA; 5 mM DTT; 0.01 % Triton X-100; Bovine Serum Albumin 0.05 mg.ml^−1 pH 7.6). Compounds stocks (100 mM) were stored at −20° C. in DMSO. Compounds were tested at the following final concentrations: 100 μM; 33.3 μM; 11.1 μM; 3.7 μM; 1.23 μM; 412 nM; 137 nM; 45.7 nM; 15.2 nM; 5 nM.
Reactions were performed as duplicates in Black LJL 96 well plates (HE microplates; Molecular Devices; 20 μl final reaction volume). The substrate concentration for USP7 was 400 nM Ub-AMC (Chem. Biol., 2003, 10, p. 837-846) (Boston Biochem). The concentrations of the enzyme (USP7) in specificity assays was 152 pM. The concentrations were determined in order to perform specificity assays under initial velocities at fixed substrate concentration. Compounds were pre-incubated with enzymes for 30 minutes at 25° C. Reactions were initiated by addition of substrate to the plates containing the enzymes (+/− compounds) diluted in assay buffer. Reactions were incubated for 60 minutes at 37° C. Reactions were stopped by adding acetic acid (100 mM final). Readings were performed on a Pherastar Fluorescent Reader (BMG). λ Emission 380 nm; λ Excitation=460 nm. Data (mean values +/− standard deviation) were analyzed as % of control (no compound) and plotted as percentage versus the Log of the compound concentration using GraphPad (Prism). Data were fitted to a sigmoidal model (variable slope).

T1 sequence (Q93009 whole entry): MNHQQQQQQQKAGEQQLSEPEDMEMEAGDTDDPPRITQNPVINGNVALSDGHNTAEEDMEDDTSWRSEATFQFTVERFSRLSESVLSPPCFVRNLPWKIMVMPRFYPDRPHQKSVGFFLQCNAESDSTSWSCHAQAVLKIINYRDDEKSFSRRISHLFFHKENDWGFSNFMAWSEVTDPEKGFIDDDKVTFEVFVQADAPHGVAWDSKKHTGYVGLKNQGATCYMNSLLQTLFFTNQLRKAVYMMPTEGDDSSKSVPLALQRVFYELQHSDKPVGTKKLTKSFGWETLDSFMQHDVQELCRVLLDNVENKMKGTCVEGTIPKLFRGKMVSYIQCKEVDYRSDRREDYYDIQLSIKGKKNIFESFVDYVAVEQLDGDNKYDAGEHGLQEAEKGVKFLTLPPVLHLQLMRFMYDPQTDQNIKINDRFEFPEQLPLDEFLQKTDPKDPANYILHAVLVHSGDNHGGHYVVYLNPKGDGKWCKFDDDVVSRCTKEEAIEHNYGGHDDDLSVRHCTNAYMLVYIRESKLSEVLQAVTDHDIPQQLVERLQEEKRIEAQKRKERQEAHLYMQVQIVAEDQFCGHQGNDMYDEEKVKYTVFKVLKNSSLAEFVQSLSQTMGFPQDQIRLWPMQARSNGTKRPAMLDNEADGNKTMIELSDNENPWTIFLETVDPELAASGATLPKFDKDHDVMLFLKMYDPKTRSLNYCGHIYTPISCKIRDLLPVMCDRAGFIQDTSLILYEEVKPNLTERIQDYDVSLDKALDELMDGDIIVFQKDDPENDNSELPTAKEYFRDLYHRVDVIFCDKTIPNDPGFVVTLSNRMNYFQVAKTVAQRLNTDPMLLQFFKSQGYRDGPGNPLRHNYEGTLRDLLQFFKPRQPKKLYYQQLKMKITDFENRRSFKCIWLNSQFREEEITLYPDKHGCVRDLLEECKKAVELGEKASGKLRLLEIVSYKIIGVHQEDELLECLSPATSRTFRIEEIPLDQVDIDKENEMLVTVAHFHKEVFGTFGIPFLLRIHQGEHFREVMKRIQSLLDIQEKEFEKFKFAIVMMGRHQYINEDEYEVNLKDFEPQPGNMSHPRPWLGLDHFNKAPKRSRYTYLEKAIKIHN

Compound	pIC50
6-(7)-Chloro-1-methyl-2,3,4,10,10a-pentaaza-cyclopenta[b]fluoren-9-one [Example 3/A]	5.55
CC(C)c1nnc2nc3c(nn12)-c1ccccc1C3=O [Example 1l/B, 3-Isopropyl-1,2,3a,4,10-pentaaza-cyclopenta[b]fluoren-9-one]	6.09
O=C1c2ccccc2-c2nn3c(C(F)(F)F)nnc3nc21 [Example 1m/B, 3-Trifluoromethyl-1,2,3a,4,10-pentaaza-cyclopenta[b]fluoren-9-one]	6.65
COCCOCCOCc1nnc2nc3c(nn12)C(=O)c1ccccc1-3 [Example 1n/A, 1-[2-(2-Methoxy-ethoxy)-ethoxymethyl]-2,3,4,10,10a-pentaaza-cyclopenta[b]fluoren-9-one]	5.92
COc1cc2c(cc1OC)-c1nn3c(C)nnc3nc1C2=O [Example 5a/B, 6,7-Dimethoxy-3-methyl-1,2,3a,4,10-pentaaza-cyclopenta[b]fluoren-9-one]	6.28
CCc1nnc2nc3c(nn12)C(=O)c1cc(OC)c(OC)cc1-3 [Example 5b/A, 1-Ethyl-6,7-dimethoxy-2,3,4,10,10a-pentaaza-cyclopenta[b]fluoren-9-one]	4.88
CCc1nnc2nc3c(nn12)-c1cc(OC)c(OC)cc1C3=O [Example 5b/B, 3-Ethyl-6,7-dimethoxy-1,2,3a,4,10-pentaaza-cyclopenta[b]fluoren-9-one]	5.98
CCCc1nnc2nc3c(nn12)-c1cc(OC)c(OC)cc1C3=O [Example 5c/B, 6,7-Dimethoxy-3-propyl-1,2,3a,4,10-pentaaza-cyclopenta[b]fluoren-9-one]	6.03
CCc1nnc2nc3c(nn12)-c1c(OC)ccc(OC)c1C3=O [Example 6/B, 3-Ethyl-5,8-dimethoxy-1,2,3a,4,10-pentaaza-cyclopenta[b]fluoren-9-one]	5.51
